Values quoted from earlier work, collected in US8507011B2, “Method for suppressing or preventing fibrous adhesion formation using a multicomponent aqueous oxychlorine composition prepared on-site” (priority 2009, dated 2013).

What was measured:
[1] = tested on: adhesion; conditions: interperitoneal infusion, rats
[2] = tested on: wound; conditions: 0.01% concentration

| Compound | Adhesion suppression versus control (in words) [1] | pKa | Wound irrigant activity (in words) [2] |
| --- | --- | --- | --- |
| CN(C)c1ccc2nc3ccc(=[N+](C)C)cc-3sc2c1 [methylene blue] | none were found between methylene blue and control | – | – |
| OCl [hypochlorous acid] | – | about 7.5 | showed promise as an effective antimicrobial wound irrigant |
